Values of other authors, collected in patent US6617356B2, “Gel system for oral and topical administration of water insoluble and/or water intolerant drugs and supplements” (priority 2000, dated 2003).

Conditions: oral, 20 grams creatine monohydrate per day for five days

## CN(CC(=O)O)C(=N)N.O [creatine monohydrate]
  Muscle total creatine concentration: increase
  Peak and total work production: cumulative increase
